Test results as given in patent publication US20250270223A1, “CRYSTAL OF SUBSTITUTED PIPERAZINE DERIVATIVE AND PREPARATION METHOD THEREFOR” (Kangbaida (Sichuan) Biotechnology Co., Ltd, priority 2022, published 2025).

Legend:
[1] = Stability study (lighting, high-temperature, high-humidity, acceleration, intermediate conditions, long-term tests); format: physicochemical; settings: light 4,500 lx; 60° C.; 25° C. RH 92.5% and 72.5%; 40° C./75% RH; 30° C./65% RH; 25° C./60% RH
Text: A proper amount of compound was weighed and placed in a suitable white transparent open container (such as a weighing bottle or petri dish), the container was placed in a lighting stability test chamber for drugs at an illumination of 4,500 lx±500 lx. The samples were taken for testing 5, 10, and 30 days after the placement.
A proper amount of compound was weighed and placed in a suitable open container (such as a weighing bottle or culture dish), the container was placed in an electric heated air-drying oven at 60° C. The samples were taken for testing 5, 10, and 30 days after the placement.
A proper amount of compound was weighed and placed in suitable open container (such as a weighing bottle or petri dish), the container was placed in a KNO3 saturated solution desiccator at a temperature of 25° C.±2° C. and a relative humidity of 92.5% and 72.5% respectively. The samples were taken for testing 5, 10, and 30 days after the placement.
After packaging an appropriate amount of the compound with inner packaging (pharmaceutical low-density polyethylene film, bag) and outer packaging (polyester/aluminum/polyethylene pharmaceutical composite film, bag), the compound was tested at a temperature of 40° C.±2° C. and a relative humidity of 75%±5%. […]

[2] = In vivo pharmacokinetic studies (plasma concentration of prototype drug by LC/MS/MS after gavage); settings: ICR male mice fasted overnight, 1 mg/mL suspension in 5% DMSO+30% HP-β-CD, plasma 0-24 h
Protocol: A proper amount of compound was weighed and 1 mg/mL suspension was prepared using the weighed compound and 5% DMSO+30% HP-β-CD. After ICR male mice fasted overnight, they were administered by gavage and their blood was collected from the jugular venous plexus at different time points of 0, 5 min, 0.25 h, 0.5 h, 1 h, 2 h, 4 h, 8 h, and 24 h. After anticoagulation with EDTA-K2, plasma was separated by centrifugation, and the concentrations of prototype drug in plasma was determined by LC/MS/MS.

For `C[C@@H](COCc1cc2n(n1)CCN(c1ncc(C(F)(F)F)cn1)C2)Nc1cn[nH]c(=O)c1C(F)(F)F` [crystalline form A, (S)-4-(Trifluoromethyl)-5-((1-((5-(5-(trifluoromethyl)pyrimidin-2-yl)-4,5,6,7-tetrahydropyrazolo[1,5-a]pyrazin-2-yl)methoxy)propan-2-yl)amino)pyridazin-3(2H)-one], the “physical and chemical stability” value [1] was “good physical and chemical stability” and the pharmacokinetic properties [2] was “good pharmacokinetic properties”.
